Assay [1] relates to HL-60, human proleukemia cells. Briefly: Cell-MTS proliferation assay, HL-60. It counts as cell-based. To be noted: Homo sapiens, 168 hr. The gist of the method:
(§1)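 Cells were seeded per 96-well at densities giving ~90% confluence by day 7 (Raji 15,000, HL-60 5,000, NCI-H460 3,000) and dosed 24 hr later with an 11-point dilution, 100 μM to 2.0 nM final. Seven-day MTS colorimetric read at OD490; IC50 from background-subtracted, DMSO-normalised values.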

Assay [2] concerns NCI-H460, human non-small cell lung cancer cells. The experiment in a line: Cell-MTS proliferation assay, NCI-H460. The format is cell-based. To be noted: Homo sapiens, 168 hr. Summed up:
as §1
(In general: Tetrazolium assays rely on reduction of a dye to a coloured formazan, in cell work by metabolically active cells.)

For a further assay, the target named is BRD4(BD1) (Homo sapiens (Human), UniProt O60885). Briefly: In vitro enzyme inhibition assay (BRD4 AlphaScreen). It counts as binding. Summed up: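 AlphaScreen proximity readout, using streptavidin donor and Ni-chelate acceptor beads at 5 μg/mL final, monitors biotin-H4 tetraacetylated peptide interaction with purified His-tagged BRD4.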
Assay [3] relates to Raji, human Burkitts lymphoma cells. The experiment in a line: Cell-MTS proliferation assay, Raji. It counts as cell-based. To be noted: Homo sapiens, 168 hr. Summed up:
as §1

Where [4] appears, read: NCI-H460, Cell-MTS proliferation.
Setting [5] is: in vitro enzyme inhibition assay.
The mark [6] stands for this setting: HL-60, Cell-MTS, class symbols A/B/C.
Setting [7] is: NCI-H460, Cell-MTS, class symbols A/B/C.
Setting [8] is: Raji, Cell-MTS, class symbols A/B/C.
The mark [9] stands for this setting: Cell-MTS proliferation, HL-60 cells.
The mark [10] stands for this setting: Cell-MTS proliferation, NCI-H460 cells.
Setting [11] is: Cell-MTS proliferation, Raji cells.

The record followed here is patent US10023592B2, “Bromodomain inhibitors” (Celgene Quanticel Research, Inc., priority 2013, dated 2018).

One may read the IC50 as the concentration at which inhibition is half-maximal. Read a low IC50 as greater potency.

As to `CCS(=O)(=O)c1ccc(OCC2CC2)c(-c2cc(Cl)c(=O)n(C)c2)c1` [Example 272, 3-chloro-5-[2-(cyclopropylmethoxy)-5-ethylsulfonylphenyl]-1-methylpyridin-2-one], the IC50 in assay [1] (HL-60, Cell-MTS proliferation) was under 500 nM; in assay [2] (setting [4]), over 5000 nM; at BRD4(BD1) (setting [5]) it was under 500 nM; in assay [3] (Raji, Cell-MTS proliferation), under 500 nM.
Consider `Cn1cc(-c2cc(S(C)(=O)=O)ccc2NCC2CC2)c2ccc(F)cc2c1=O` [Example 196, 4-[2-(cyclopropylmethylamino)-5-methylsulfonylphenyl]-7-fluoro-2-methylisoquinolin-1-one], for which the IC50 is under 500 nM in assay [1] (HL-60, Cell-MTS proliferation); over 5000 nM in assay [2] (setting [4]); under 500 nM against BRD4(BD1) (setting [5]); under 500 nM in assay [3] (Raji, Cell-MTS proliferation).
As to `CCS(=O)(=O)c1ccc(NCC2CC2)c(-c2cn(C)c(=O)c3ccccc23)c1` [Example 193, 4-[2-(cyclopropylmethylamino)-5-ethylsulfonylphenyl]-2-methylisoquinolin-1-one], the IC50 in assay [1] (HL-60, Cell-MTS proliferation) was under 500 nM; in assay [2] (setting [4]), over 5000 nM; against BRD4(BD1) (setting [5]), under 500 nM; in assay [3] (Raji, Cell-MTS proliferation), under 500 nM.
With `Cn1cc(-c2cc(S(C)(=O)=O)ccc2Oc2ccc(F)cc2F)cc(F)c1=O` [Example 120, 5-[2-(2,4-difluorophenoxy)-5-methylsulfonylphenyl]-3-fluoro-1-methylpyridin-2-one], the IC50 in assay [1] (setting [6]) is 500 to 5000 nM; in assay [2] (setting [7]) it was over 5000 nM; at BRD4(BD1) (class symbols A/B/C), 500 to 5000 nM; in assay [3] (setting [8]), over 5000 nM.
Regarding `Cn1cc(-c2cc(S(C)(=O)=O)ccc2O[C@H]2CC[C@H](N)CC2)c2ccccc2c1=O` [Example 182, 4-[2-(trans-4-aminocyclohexyl)oxy-5-methylsulfonylphenyl]-2-methylisoquinolin-1-one], the IC50 in assay [1] (HL-60, Cell-MTS proliferation) is under 500 nM; in assay [2] (setting [4]), over 5000 nM; at BRD4(BD1) (setting [5]) it was under 500 nM; in assay [3] (Raji, Cell-MTS proliferation), under 500 nM.
On to `CCOc1ccc(S(=O)(=O)CC)cc1-c1cc(N(C)C)c(=O)n(C)c1` [Example 469, 3-(dimethylamino)-5-(2-ethoxy-5-ethylsulfonylphenyl)-1-methylpyridin-2-one], for which the IC50 is under 500 nM in assay [1] (setting [9]), over 5000 nM in assay [2] (setting [10]), under 500 nM against BRD4(BD1) (setting [5]) and under 500 nM in assay [3] (setting [11]).
Turning to `CCS(=O)(=O)c1ccc(Nc2ccc(F)cc2F)c(-c2cc(C)c(=O)n(C)c2)c1` [Example 396, 5-[2-(2,4-difluoroanilino)-5-ethylsulfonylphenyl]-1,3-dimethylpyridin-2-one], the IC50 in assay [1] (setting [9]) is under 500 nM; in assay [2] (setting [10]), over 5000 nM; at BRD4(BD1) (setting [5]) it was under 500 nM; in assay [3] (setting [11]) it was under 500 nM.
Turning to `CCS(=O)(=O)Nc1ccc(Oc2ccc(F)cc2F)c(-c2cn(C)c(=O)c3ccncc23)c1` [Example 127, N-[4-(2,4-difluorophenoxy)-3-(2-methyl-1-oxo-2,6-naphthyridin-4-yl)phenyl]ethanesulfonamide], the IC50 in assay [1] (setting [6]) is under 500 nM; in assay [2] (setting [7]), over 5000 nM; against BRD4(BD1) (class symbols A/B/C), under 500 nM; in assay [3] (setting [8]), under 500 nM.
On to `CCS(=O)(=O)Nc1ccc(Oc2ccc(F)cc2F)c(-c2cn(C)c(=O)c3nncn23)c1` [Example 236, N-[4-(2,4-difluorophenoxy)-3-(7-methyl-8-oxo-[1,2,4]triazolo[4,3-a]pyrazin-5-yl)phenyl]ethanesulfonamide], for which the IC50 was 500 to 5000 nM in assay [1] (HL-60, Cell-MTS proliferation); over 5000 nM in assay [2] (setting [4]); under 500 nM on BRD4(BD1) (setting [5]); over 5000 nM in assay [3] (Raji, Cell-MTS proliferation).
`Cc1cnn(-c2ccc3c(=O)n(C)cc(-c4cc(S(C)(=O)=O)ccc4OCC4CC4)c3c2)c1` [Example 128, 4-[2-(cyclopropylmethoxy)-5-methylsulfonylphenyl]-2-methyl-6-(4-methylpyrazol-1-yl)isoquinolin-1-one]: the IC50 in assay [1] (setting [6]) is under 500 nM; in assay [2] (setting [7]) it was over 5000 nM; against BRD4(BD1) (class symbols A/B/C), under 500 nM; in assay [3] (setting [8]), under 500 nM.
Take `CCS(=O)(=O)Nc1ccc(OC2CCC(F)(F)CC2)c(-c2cc(C)c(=O)n(C)c2)c1` [Example 449, N-[4-(4,4-difluorocyclohexyl)oxy-3-(1,5-dimethyl-6-oxopyridin-3-yl)phenyl] ethanesulfonamide]: the IC50 in assay [1] (setting [9]) was under 500 nM; in assay [2] (setting [10]), over 5000 nM; on BRD4(BD1) (setting [5]), under 500 nM; in assay [3] (setting [11]), under 500 nM.
With `Cn1cc(-c2cc(S(C)(=O)=O)ccc2NC(=O)C2CC2)c2ccccc2c1=O` [Example 220, N-[2-(2-methyl-1-oxoisoquinolin-4-yl)-4-methylsulfonylphenyl]cyclopropanecarboxamide], the IC50 was over 5000 nM in assay [1] (HL-60, Cell-MTS proliferation); over 5000 nM in assay [2] (setting [4]); 500 to 5000 nM on BRD4(BD1) (setting [5]); over 5000 nM in assay [3] (Raji, Cell-MTS proliferation).
Regarding `CCCOc1ccc(S(=O)(=O)CC)cc1-c1cn(C)c(=O)c2cnc(-c3cnn(C)c3)nc12` [Example 225, 8-(5-ethylsulfonyl-2-propoxyphenyl)-6-methyl-2-(1-methylpyrazol-4-yl)pyrido[4,3-d]pyrimidin-5-one], the IC50 in assay [1] (HL-60, Cell-MTS proliferation) was under 500 nM; in assay [2] (setting [4]), over 5000 nM; on BRD4(BD1) (setting [5]) it was under 500 nM; in assay [3] (Raji, Cell-MTS proliferation), under 500 nM.
Consider `CCCOc1ccc(S(C)(=O)=O)cc1-c1cn(C)c(=O)c2ccccc12` [Example 178, 2-methyl-4-(5-methylsulfonyl-2-propoxyphenyl)isoquinolin-1-one], for which the IC50 in assay [1] (HL-60, Cell-MTS proliferation) was under 500 nM; in assay [2] (setting [4]), over 5000 nM; against BRD4(BD1) (setting [5]) it was under 500 nM; in assay [3] (Raji, Cell-MTS proliferation), under 500 nM.
With `CCS(=O)(=O)Nc1ccc(Oc2ccc(F)cc2F)c(-c2cc(F)c(=O)n(C)c2)c1` [Example 122, N-[4-(2,4-difluorophenoxy)-3-(5-fluoro-1-methyl-6-oxopyridin-3-yl)phenyl]ethanesulfonamide], the IC50 in assay [1] (setting [6]) is under 500 nM; in assay [2] (setting [7]), over 5000 nM; on BRD4(BD1) (class symbols A/B/C) it was under 500 nM; in assay [3] (setting [8]) it was under 500 nM.
`CCS(=O)(=O)Nc1cnc(OCC2CC2)c(-c2cn(C)c(=O)c3ccccc23)c1` [Example 320, N-[6-(cyclopropylmethoxy)-5-(2-methyl-1-oxoisoquinolin-4-yl)pyridin-3-yl]ethanesulfonamide]: the IC50 in assay [1] (HL-60, Cell-MTS proliferation) is under 500 nM; in assay [2] (setting [4]), over 5000 nM; against BRD4(BD1) (setting [5]) it was under 500 nM; in assay [3] (Raji, Cell-MTS proliferation) it was under 500 nM.
Take `CCc1cnc(NS(=O)(=O)CC)nc1-c1cc(C)c(=O)n(C)c1` [Example 307, N-[4-(1,5-dimethyl-6-oxopyridin-3-yl)-5-ethylpyrimidin-2-yl] ethanesulfonamide]: the IC50 in assay [1] (HL-60, Cell-MTS proliferation) is under 500 nM; in assay [2] (setting [4]) it was over 5000 nM; against BRD4(BD1) (setting [5]), under 500 nM; in assay [3] (Raji, Cell-MTS proliferation) it was under 500 nM.
Consider `COc1ccc(-c2cc(N(C)C)c(=O)n(C)c2)cc1NS(C)(=O)=O` [Example 113, N-[5-[5-(dimethylamino)-1-methyl-6-oxopyridin-3-yl]-2-methoxyphenyl]methanesulfonamide], for which the IC50 in assay [1] (setting [6]) was under 500 nM; in assay [2] (setting [7]), 500 to 5000 nM; against BRD4(BD1) (class symbols A/B/C), under 500 nM; in assay [3] (setting [8]), 500 to 5000 nM.
For `CCS(=O)(=O)Nc1ccc(Oc2ccc(F)cc2F)c(-c2cn(C)c(=O)c3cnccc23)c1` [Example 57, N-[4-(2,4-difluorophenoxy)-3-(2-methyl-1-oxo-2,7-naphthyridin-4-yl)phenyl]ethanesulfonamide], the IC50 in assay [1] (setting [6]) is under 500 nM; in assay [2] (setting [7]), over 5000 nM; on BRD4(BD1) (class symbols A/B/C), under 500 nM; in assay [3] (setting [8]) it was under 500 nM.
